For two molecules, Ausfälle and Schuppenbild results are on record in EP0167710A1, “Use of benomyl for the manufacture of a medicament against ichthyophthyriasis” (Eduro World Investments Inc., priority 1984, dated 1986).

For assay [1], the system named is Ichthiophthyriasis auslösenden Parasiten. The assay can be described thus: Treatment of Ichthyophthyriasis-infected fish in aquaria (Beispiel 1). It is filed as in vivo. The conditions noted are these: 6 days after start of treatment, 16 Sumatrabarben per 40 Liter tank, Benomyl 0,2 mg/ml, Malachitgrün 0,03 mg/ml, repeated at half dose after 3 bis 5 Tagen; for Ausfälle: 25 + 1°C. Here is the method:
(§1) Unter gleichen Bedingungen wurden in drei Fischbehältern A, B und C (40 Liter) je 16 Sumatrabarben ausgesetzt. Die Wassertemperatur betrug 25 + 1°C. Nach eintägiger Haltung wurden die Fische in Kontakt mit Ichthiophthyriasis auslösenden Parasiten gebracht. Nach visuell sichtbarer Infektion wurden zugesetzt: • Im Aquarium A: Reines Wasser • Im Aquarium B: 1-(N-Butylcarbamoyl)-2-(methoxycarbonyl-amino)-benzimidazol (als pulverförmiges Gemisch. Konzentration an Wirkstoff 0,2 mg/ml) • Im Aquarium C: Malachitgrün (Wirkstoffkonzentrat-0,03 mg/ml)
(§2) Die Zugabe wurde mit der halben Dosierung nach 3 bis 5 Tagen wiederholt.

Assay [2] shares this test system. Nature of the assay: Treatment of Ichthyophthyriasis-infected fish in aquaria (Beispiel 2). It is filed as in vivo. The conditions noted are these: after 7 Behandlungstagen; 18 Neonsalmler per tank; conditions of Beispiel 1, repeat dose equal to the initial dose. The protocol:
as §1, §2
Unter den Bedingungen des Beispiels 1 wurden jeweils 18 Neonsalmler behandelt. Die Nachdosierung erfolgte jedoch in Höhe der Anfangsdosierung.

As to `CCCCNC(=O)n1c(NC(=O)OC)nc2ccccc21` [Benomyl], in assay [1], the Ausfälle turned out to be 2 Tieren pro Becken and the Schuppenbild entry is “normalisiert”. Moreover, in assay [2], the Ausfälle result is reported as “Keine Ausfälle”.

Consider `CN(C)c1ccc(C(=C2C=CC(=[N+](C)C)C=C2)c2ccccc2)cc1` [Malachitgrün], for which the Ausfälle in assay [1] is recorded as 2 Tieren pro Becken; in assay [2], “Ein Ausfall”. Moreover, in assay [1], the Schuppenbild entry is listed as “normalisiert”.
